Reference: patent US10399980B2, “Purinones as ubiquitin-specific protease 1 inhibitors” (FORMA Therapeutics, Inc., priority 2015, dated 2019)

Target: USP1, construct USP1 (1-785, GG670, 671AA)/UAF1 (1-677)-Flag (Homo sapiens (Human), UniProt O94782, G670A/G671A)
Assay: Ubiquitin-Rhodamine 110 assay for USP1 activity, follow-up IC50 studies
Type: biochemical
Conditions: USP1/UAF1, 30 min preincubation
Description: Example 53: Ubitquin-Rhodamine 110 Assay for USP1 Activity
Nanoliter quantities of either an 8-point or 10-point, 3-fold serial dilution in DMSO was pre-dispensed into assay plates (Perkin Elmer, ProxiPlate-384 F Plus, #6008269) for a final test concentration range of either 25 μM to 11 nM or 25 μM to 1.3 nM, respectively. The final concentration of the enzyme (USP1, construct USP1 (1-785, GG670, 671AA)/UAF1 (1-677)-Flag; Viva) in the assay was 25 pM. Final substrate (Ub-Rh110; Ubiquitin-Rhodamine 110, R&D Systems #U-555) concentration was 25 nM with [Ub-Rh110]<<Km. […] Plates were incubated stacked for 20 minutes at room temperature before 5 μL of stop solution (final concentration of 10 mM citric acid in assay buffer (Sigma, #251275-500G)). Fluorescence was read on the Envision (Excitation at 485 nm and Emission at 535 nm; Perkin Elmer) or on the PheraSTAR (Excitation at 485 nm and Emission at 535 nm; BMG Labtech).
For both assay formats data were reported as percent inhibition compared with control wells based on the following equation: % inh=[1−((FLU−AveLow)/(AveHigh−AveLow))]×100 where FLU=measured Fluorescence, AveLow=average Fluorescence of no enzyme control (n=16), and AveHigh=average Fluorescence of DMSO control (n=16). IC50 values were determined by curve fitting of the standard 4 parameter logistic fitting algorithm included in the Activity Base software package: IDBS XE Designer Model205. Data is fitted using the Levenburg Marquardt algorithm.

Sequence of USP1, construct USP1 (1-785, GG670, 671AA)/UAF1 (1-677)-Flag (O94782 whole entry G670A/G671A): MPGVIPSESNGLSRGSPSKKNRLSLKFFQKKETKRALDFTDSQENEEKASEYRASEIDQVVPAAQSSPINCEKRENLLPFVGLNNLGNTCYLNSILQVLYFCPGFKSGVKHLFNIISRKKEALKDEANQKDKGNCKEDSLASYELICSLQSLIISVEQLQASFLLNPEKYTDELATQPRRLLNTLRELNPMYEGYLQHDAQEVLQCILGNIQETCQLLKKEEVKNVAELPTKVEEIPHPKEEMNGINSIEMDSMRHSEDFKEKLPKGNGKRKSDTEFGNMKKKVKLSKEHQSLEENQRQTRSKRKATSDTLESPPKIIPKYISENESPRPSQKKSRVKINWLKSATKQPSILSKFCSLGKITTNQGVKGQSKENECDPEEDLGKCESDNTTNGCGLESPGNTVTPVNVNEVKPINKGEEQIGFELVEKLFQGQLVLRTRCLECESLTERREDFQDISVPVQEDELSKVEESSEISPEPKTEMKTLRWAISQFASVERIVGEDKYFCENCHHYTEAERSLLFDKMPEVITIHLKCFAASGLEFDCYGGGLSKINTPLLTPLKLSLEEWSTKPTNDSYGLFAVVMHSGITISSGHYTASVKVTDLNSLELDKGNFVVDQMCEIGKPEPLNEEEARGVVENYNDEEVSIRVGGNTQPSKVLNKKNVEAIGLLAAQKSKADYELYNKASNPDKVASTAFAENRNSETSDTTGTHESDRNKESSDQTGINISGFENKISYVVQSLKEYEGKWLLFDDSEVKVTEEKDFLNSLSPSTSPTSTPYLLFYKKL
Sequence of USP1, construct USP1 (1-785, GG670, 671AA)/UAF1 (1-677)-Flag (Q8TAF3 whole entry partner): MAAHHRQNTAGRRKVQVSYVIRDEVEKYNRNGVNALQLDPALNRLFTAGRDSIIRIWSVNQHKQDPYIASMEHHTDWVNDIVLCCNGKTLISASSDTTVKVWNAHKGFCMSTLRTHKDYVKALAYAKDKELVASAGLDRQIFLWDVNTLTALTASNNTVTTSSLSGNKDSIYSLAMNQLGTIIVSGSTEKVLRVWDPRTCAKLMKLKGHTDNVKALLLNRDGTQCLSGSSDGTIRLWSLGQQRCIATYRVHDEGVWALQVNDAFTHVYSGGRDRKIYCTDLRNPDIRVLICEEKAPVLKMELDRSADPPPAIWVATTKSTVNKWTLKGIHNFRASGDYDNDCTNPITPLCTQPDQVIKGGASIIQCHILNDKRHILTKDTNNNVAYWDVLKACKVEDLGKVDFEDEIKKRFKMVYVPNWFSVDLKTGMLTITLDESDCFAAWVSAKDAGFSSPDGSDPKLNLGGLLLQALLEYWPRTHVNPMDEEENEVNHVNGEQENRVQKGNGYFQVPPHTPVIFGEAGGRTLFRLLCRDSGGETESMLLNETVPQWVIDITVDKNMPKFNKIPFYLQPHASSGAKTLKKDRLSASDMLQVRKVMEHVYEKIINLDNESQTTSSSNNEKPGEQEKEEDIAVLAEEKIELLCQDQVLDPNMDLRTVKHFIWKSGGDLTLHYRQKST

Structure (SMILES)	IC50
Cc1cc(C)n([C@H]2CC[C@@H](Cn3c(=O)n(C)c4cnc(-c5ccccc5C(C)C)nc43)CC2)n1 [I-111, 9-(((1s,4s)-4-(3,5-dimethyl-1H-pyrazol-1-yl)cyclohexyl)methyl)-2-(2-isopropylphenyl)-7-methyl-7,9-dihydro-8H-purin-8-one]	50 to 200 nM
Cn1cc(C(F)(F)F)nc1-c1ccc(Cn2c(=O)n(C)c3cnc(-c4ccccc4C4CC4)nc32)cc1 [I-70, 2-(2-cyclopropylphenyl)-7-methyl-9-(4-(1-methyl-4-(trifluoromethyl)-1H-imidazol-2-yl)benzyl)-7,9-dihydro-8H-purin-8-one]	< 50 nM
Cc1cc(C)n([C@H]2CC[C@H](Cn3c(=O)[nH]c4cnc(-c5ccccc5C(C)C)nc43)CC2)n1 [I-213, 9-(((1r,4r)-4-(3,5-dimethyl-1H-pyrazol-1-yl)cyclohexyl)methyl)-2-(2-isopropylphenyl)-7,9-dihydro-8H-purin-8-one]	200 to 2000 nM
